Tests used:
NEK2 = molecular target: T1, NEK2 (Homo sapiens, UniProt P51955); test: Viral trapping in VLPs, MS analysis; format: binding; conditions: all proteins (incl. low confidence identifications)
T1 construct: endogenous in cells; host or cells: HEK293T

USP7 = molecular target: T2, USP7 (Homo sapiens, UniProt Q93009); test: Viral trapping in VLPs, MS analysis; format: binding; conditions: all proteins (incl. low confidence identifications)
T2 construct: endogenous in cells; host or cells: HEK293T

MYO1D = molecular target: T3, MYO1D (Homo sapiens, UniProt O94832); test: Viral trapping in VLPs, MS analysis; format: binding; conditions: all proteins (incl. low confidence identifications)
T3 construct: endogenous in cells; host or cells: HEK293T

MST1R = molecular target: T4, MST1R (Homo sapiens, UniProt Q04912); test: Viral trapping in VLPs, MS analysis; format: binding; conditions: all proteins (incl. low confidence identifications)
T4 construct: endogenous in cells; host or cells: HEK293T

MBTPS1 = molecular target: T5, MBTPS1 (Homo sapiens, UniProt Q14703); test: Viral trapping in VLPs, MS analysis; format: binding; conditions: all proteins (incl. low confidence identifications)
T5 construct: endogenous in cells; host or cells: HEK293T

HTRA3 = conditions: all proteins (incl. low confidence identifications)
TMEM9 = molecular target: T6, TMEM9 (Homo sapiens, UniProt Q9P0T7); test: Viral trapping in VLPs, MS analysis; format: binding; conditions: all proteins (incl. low confidence identifications)
T6 construct: endogenous in cells; host or cells: HEK293T

INSR = molecular target: T7, INSR (Homo sapiens, UniProt P06213); test: Viral trapping in VLPs, MS analysis; format: binding
T7 construct: endogenous in cells; host or cells: HEK293T
T7 sequence (P06213 28-1382): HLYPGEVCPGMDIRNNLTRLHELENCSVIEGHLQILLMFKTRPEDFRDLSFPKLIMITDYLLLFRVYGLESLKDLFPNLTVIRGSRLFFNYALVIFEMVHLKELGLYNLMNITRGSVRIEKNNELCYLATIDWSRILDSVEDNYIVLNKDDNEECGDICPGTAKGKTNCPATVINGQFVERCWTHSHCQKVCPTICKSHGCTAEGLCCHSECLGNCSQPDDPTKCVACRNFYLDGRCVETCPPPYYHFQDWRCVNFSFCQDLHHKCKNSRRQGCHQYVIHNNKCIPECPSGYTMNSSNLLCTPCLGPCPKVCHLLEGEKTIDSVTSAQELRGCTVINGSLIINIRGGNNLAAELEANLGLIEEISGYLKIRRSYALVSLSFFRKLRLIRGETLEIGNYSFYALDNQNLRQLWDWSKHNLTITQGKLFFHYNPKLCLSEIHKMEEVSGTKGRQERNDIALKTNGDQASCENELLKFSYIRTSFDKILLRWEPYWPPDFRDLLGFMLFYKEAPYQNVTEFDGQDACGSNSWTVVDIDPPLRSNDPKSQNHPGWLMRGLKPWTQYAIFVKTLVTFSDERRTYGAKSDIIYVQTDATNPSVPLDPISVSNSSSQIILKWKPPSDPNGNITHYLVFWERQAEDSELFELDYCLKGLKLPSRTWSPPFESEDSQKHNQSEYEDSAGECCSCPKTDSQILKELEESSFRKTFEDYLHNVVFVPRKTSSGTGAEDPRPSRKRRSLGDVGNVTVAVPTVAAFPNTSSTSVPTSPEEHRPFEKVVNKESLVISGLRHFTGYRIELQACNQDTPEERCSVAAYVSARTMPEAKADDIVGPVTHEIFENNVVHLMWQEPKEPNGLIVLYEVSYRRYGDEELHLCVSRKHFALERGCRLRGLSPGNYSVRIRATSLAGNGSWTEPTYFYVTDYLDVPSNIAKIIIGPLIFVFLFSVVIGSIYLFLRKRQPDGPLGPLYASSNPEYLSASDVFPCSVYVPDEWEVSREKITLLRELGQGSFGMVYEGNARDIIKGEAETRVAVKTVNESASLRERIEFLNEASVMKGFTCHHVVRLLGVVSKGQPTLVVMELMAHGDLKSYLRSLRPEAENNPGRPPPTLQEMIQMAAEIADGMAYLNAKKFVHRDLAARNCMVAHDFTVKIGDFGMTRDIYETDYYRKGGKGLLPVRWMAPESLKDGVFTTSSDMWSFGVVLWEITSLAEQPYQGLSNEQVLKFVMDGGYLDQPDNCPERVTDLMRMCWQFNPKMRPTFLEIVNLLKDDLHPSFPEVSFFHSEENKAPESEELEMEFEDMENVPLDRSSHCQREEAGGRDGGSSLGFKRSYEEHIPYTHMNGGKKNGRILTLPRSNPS

TMX1 = molecular target: T8, TMX1 (Homo sapiens, UniProt Q9H3N1); test: Viral trapping in VLPs, MS analysis; format: binding; conditions: all proteins (incl. low confidence identifications)
T8 construct: endogenous in cells; host or cells: HEK293T

BZW1 = molecular target: T9, BZW1 (Homo sapiens, UniProt Q7L1Q6); test: Viral trapping in VLPs, MS analysis; format: binding; conditions: all proteins (incl. low confidence identifications)
T9 construct: endogenous in cells; host or cells: HEK293T

FKBP3 = molecular target: T10, FKBP3 (Homo sapiens, UniProt Q00688); test: Viral trapping in VLPs, MS analysis; format: binding; conditions: all proteins (incl. low confidence identifications)
T10 construct: endogenous in cells; host or cells: HEK293T

GEMIN5 = molecular target: T11, GEMIN5 (Homo sapiens, UniProt Q8TEQ6); test: Viral trapping in VLPs, MS analysis; format: binding
T11 construct: endogenous in cells; host or cells: HEK293T
T11 sequence (Q8TEQ6 whole entry): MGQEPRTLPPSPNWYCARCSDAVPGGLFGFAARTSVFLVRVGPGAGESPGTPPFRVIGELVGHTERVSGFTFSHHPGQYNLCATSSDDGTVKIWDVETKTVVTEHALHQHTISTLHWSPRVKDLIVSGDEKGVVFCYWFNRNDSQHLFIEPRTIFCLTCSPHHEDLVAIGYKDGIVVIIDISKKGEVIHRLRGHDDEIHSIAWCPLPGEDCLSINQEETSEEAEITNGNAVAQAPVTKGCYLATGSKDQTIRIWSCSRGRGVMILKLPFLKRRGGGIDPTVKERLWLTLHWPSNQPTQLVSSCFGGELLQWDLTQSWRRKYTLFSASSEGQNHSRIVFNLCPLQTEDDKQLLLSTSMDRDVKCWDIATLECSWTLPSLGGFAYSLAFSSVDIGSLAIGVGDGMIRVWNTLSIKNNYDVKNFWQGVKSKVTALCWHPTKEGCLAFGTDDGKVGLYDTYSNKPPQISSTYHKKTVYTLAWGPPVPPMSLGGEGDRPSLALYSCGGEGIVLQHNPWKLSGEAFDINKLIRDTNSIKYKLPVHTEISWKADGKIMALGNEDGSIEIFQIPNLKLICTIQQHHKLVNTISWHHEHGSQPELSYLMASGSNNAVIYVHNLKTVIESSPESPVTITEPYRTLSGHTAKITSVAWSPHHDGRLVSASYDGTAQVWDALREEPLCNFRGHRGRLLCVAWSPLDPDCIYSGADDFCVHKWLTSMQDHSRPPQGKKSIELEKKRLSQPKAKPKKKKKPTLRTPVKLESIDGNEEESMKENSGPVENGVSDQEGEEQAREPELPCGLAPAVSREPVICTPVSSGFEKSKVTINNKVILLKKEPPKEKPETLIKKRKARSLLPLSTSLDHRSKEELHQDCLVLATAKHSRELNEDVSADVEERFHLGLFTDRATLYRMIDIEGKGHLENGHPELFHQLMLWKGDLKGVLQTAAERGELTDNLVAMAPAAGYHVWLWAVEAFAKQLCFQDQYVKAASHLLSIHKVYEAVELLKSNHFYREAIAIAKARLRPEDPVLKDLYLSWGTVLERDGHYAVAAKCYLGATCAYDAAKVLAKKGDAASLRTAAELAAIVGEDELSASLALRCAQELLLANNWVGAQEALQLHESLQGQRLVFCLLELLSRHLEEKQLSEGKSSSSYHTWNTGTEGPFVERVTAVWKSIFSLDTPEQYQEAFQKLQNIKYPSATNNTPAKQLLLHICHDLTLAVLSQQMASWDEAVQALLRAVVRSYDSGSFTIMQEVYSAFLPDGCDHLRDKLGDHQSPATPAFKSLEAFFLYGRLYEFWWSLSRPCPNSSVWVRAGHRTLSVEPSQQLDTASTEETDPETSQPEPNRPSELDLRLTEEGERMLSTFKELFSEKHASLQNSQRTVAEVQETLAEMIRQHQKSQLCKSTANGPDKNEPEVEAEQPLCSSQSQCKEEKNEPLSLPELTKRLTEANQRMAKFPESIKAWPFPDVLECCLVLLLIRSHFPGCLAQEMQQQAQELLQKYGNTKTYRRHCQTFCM

IGF1R = molecular target: T12, IGF1R (Homo sapiens, UniProt P08069); test: Viral trapping in VLPs, MS analysis; format: binding
T12 construct: endogenous in cells; host or cells: HEK293T
T12 sequence (P08069 31-1367): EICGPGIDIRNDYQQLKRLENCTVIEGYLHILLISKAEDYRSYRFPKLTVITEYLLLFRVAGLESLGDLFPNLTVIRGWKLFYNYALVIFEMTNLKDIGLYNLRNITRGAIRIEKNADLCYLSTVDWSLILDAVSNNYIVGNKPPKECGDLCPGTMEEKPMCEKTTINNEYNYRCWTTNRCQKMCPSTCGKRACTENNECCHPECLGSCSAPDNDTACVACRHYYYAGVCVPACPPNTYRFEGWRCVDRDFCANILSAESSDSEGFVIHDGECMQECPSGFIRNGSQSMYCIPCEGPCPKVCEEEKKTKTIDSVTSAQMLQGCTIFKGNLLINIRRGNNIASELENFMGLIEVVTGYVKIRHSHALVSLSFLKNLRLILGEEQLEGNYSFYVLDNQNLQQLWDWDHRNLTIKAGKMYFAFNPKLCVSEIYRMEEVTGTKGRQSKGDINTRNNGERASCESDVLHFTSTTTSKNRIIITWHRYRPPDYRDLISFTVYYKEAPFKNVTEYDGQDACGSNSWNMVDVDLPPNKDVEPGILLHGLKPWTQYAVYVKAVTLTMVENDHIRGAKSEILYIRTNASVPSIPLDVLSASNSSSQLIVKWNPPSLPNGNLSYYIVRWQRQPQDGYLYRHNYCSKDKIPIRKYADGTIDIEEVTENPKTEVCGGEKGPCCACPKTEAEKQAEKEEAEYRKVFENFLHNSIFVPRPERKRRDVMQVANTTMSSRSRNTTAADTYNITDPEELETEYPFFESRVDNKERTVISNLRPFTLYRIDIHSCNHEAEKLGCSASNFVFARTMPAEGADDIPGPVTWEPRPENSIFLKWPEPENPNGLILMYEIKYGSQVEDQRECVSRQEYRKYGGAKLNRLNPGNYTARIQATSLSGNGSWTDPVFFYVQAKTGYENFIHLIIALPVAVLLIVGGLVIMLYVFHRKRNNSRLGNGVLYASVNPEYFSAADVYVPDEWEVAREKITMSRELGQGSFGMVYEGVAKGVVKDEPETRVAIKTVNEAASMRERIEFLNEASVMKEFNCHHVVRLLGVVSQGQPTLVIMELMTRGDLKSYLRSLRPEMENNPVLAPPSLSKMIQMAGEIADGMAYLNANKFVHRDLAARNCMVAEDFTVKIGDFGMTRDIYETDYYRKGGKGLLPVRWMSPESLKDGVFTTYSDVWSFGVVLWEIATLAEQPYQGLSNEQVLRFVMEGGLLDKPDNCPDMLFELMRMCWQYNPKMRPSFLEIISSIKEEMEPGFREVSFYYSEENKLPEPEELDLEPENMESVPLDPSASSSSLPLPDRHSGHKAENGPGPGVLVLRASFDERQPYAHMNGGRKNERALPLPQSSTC

ZNF827 = molecular target: T13, ZNF827 (Homo sapiens, UniProt Q17R98); test: Viral trapping in VLPs, MS analysis; format: binding; conditions: all proteins (incl. low confidence identifications)
T13 construct: endogenous in cells; host or cells: HEK293T

LMAN1 = molecular target: T14, LMAN1 (Homo sapiens, UniProt P49257); test: Viral trapping in VLPs, MS analysis; format: binding; conditions: all proteins (incl. low confidence identifications)
T14 construct: endogenous in cells; host or cells: HEK293T

MFI2 = molecular target: T15, MFI2 (Homo sapiens, UniProt P08582); test: Viral trapping in VLPs, MS analysis; format: binding; conditions: all proteins (incl. low confidence identifications)
T15 construct: endogenous in cells; host or cells: HEK293T

TMEM30A = molecular target: T16, TMEM30A (Homo sapiens, UniProt Q9NV96); test: Viral trapping in VLPs, MS analysis; format: binding; conditions: all proteins (incl. low confidence identifications)
T16 construct: endogenous in cells; host or cells: HEK293T

CTNNA2 = molecular target: T17, CTNNA2 (Homo sapiens, UniProt P26232); test: Viral trapping in VLPs, MS analysis; format: binding; conditions: all proteins (incl. low confidence identifications)
T17 construct: endogenous in cells; host or cells: HEK293T

NT5C = molecular target: T18, NT5C (Homo sapiens, UniProt Q8TCD5); test: Viral trapping in VLPs, MS analysis; format: binding; conditions: all proteins (incl. low confidence identifications)
T18 construct: endogenous in cells; host or cells: HEK293T
T18 sequence (Q8TCD5 whole entry): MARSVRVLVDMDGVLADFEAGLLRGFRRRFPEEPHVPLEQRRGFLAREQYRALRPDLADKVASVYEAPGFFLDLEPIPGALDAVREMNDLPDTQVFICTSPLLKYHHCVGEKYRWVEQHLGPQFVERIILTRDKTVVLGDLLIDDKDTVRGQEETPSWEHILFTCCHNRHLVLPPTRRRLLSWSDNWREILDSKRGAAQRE

GAK = molecular target: T19, GAK (Homo sapiens, UniProt O14976); test: Viral trapping in VLPs, MS analysis; format: binding; conditions: all proteins (incl. low confidence identifications)
T19 construct: endogenous in cells; host or cells: HEK293T

RPS6KA1 = molecular target: T20, RPS6KA1 (Homo sapiens, UniProt Q15418); test: Viral trapping in VLPs, MS analysis; format: binding; conditions: all proteins (incl. low confidence identifications)
T20 construct: endogenous in cells; host or cells: HEK293T

APMAP = molecular target: T21, APMAP (Homo sapiens, UniProt Q9HDC9); test: Viral trapping in VLPs, MS analysis; format: binding; conditions: all proteins (incl. low confidence identifications)
T21 construct: endogenous in cells; host or cells: HEK293T

YIPF5 = molecular target: T22, YIPF5 (Homo sapiens, UniProt Q969M3); test: Viral trapping in VLPs, MS analysis; format: binding; conditions: all proteins (incl. low confidence identifications)
T22 construct: endogenous in cells; host or cells: HEK293T
T22 sequence (Q969M3 whole entry): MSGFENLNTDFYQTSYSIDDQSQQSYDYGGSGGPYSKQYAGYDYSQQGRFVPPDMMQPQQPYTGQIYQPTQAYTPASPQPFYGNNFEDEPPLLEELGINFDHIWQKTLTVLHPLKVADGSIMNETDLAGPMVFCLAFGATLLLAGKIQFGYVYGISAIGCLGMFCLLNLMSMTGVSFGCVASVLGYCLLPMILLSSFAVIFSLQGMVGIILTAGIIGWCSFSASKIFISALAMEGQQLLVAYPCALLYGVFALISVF

NQO2 = molecular target: T23, NQO2 (Homo sapiens, UniProt P16083); test: Viral trapping in VLPs, MS analysis; format: binding
T23 construct: endogenous in cells; host or cells: HEK293T
T23 sequence (P16083 whole entry): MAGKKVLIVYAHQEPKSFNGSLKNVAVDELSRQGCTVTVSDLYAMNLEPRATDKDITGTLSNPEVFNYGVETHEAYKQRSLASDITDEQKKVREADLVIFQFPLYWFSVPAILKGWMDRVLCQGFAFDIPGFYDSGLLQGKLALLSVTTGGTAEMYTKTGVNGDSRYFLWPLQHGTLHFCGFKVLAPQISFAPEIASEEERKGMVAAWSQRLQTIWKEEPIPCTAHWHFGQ

RCL = molecular target: T24, RCL (Homo sapiens, UniProt O43598); test: Viral trapping in VLPs, MS analysis; format: binding
T24 construct: endogenous in cells; host or cells: HEK293T
T24 sequence (O43598 whole entry): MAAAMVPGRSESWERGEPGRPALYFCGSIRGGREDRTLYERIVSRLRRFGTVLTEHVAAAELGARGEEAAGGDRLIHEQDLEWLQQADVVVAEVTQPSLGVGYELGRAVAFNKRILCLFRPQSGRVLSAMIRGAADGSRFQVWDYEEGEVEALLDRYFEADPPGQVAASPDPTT

CAMKV = molecular target: T25, CAMKV (Homo sapiens, UniProt Q8NCB2); test: Viral trapping in VLPs, MS analysis; format: binding; conditions: all proteins (incl. low confidence identifications)
T25 construct: endogenous in cells; host or cells: HEK293T

DYNC2H1 = molecular target: T26, DYNC2H1 (Homo sapiens, UniProt Q8NCM8); test: Viral trapping in VLPs, MS analysis; format: binding; conditions: all proteins (incl. low confidence identifications)
T26 construct: endogenous in cells; host or cells: HEK293T

PPM1L = molecular target: T27, PPM1L (Homo sapiens, UniProt Q5SGD2); test: Viral trapping in VLPs, MS analysis; format: binding; conditions: all proteins (incl. low confidence identifications)
T27 construct: endogenous in cells; host or cells: HEK293T

[1] = all proteins (incl. low confidence identifications)
[2] = proteins identified with >1 peptide (high confidence)

## CN(Cc1cnc2nc(N)nc(N)c2n1)c1ccc(C(=O)NC(CCC(=O)NCCOCCOCCOCCOCCOCCn2cc(CN3CCN(c4ccc(Nc5nc(NC6CCCCC6)c6nc[nH]c6n5)cc4)CC3)nn2)C(=O)O)cc1 (stereo not drawn) [MTX-PEG6-reversine]
NEK2
  Recurrence (x/2): 1 x/2
USP7
  Recurrence (x/2): 1 x/2
MYO1D
  Recurrence (x/2): 1 x/2
MST1R
  Recurrence (x/2): 1 x/2
MBTPS1
  Recurrence (x/2): 1 x/2
HTRA3
  Recurrence (x/2): 1 x/2
TMEM9
  Recurrence (x/2): 1 x/2
INSR; [1]
  Recurrence (x/2): 2 x/2
INSR; [2]
  Recurrence (x/2): 2 x/2
TMX1
  Recurrence (x/2): 1 x/2
BZW1
  Recurrence (x/2): 1 x/2
FKBP3
  Recurrence (x/2): 1 x/2
GEMIN5; [1]
  Recurrence (x/2): 1 x/2
GEMIN5; [2]
  Recurrence (x/2): 1 x/2
IGF1R; [1]
  Recurrence (x/2): 2 x/2
IGF1R; [2]
  Recurrence (x/2): 2 x/2
ZNF827
  Recurrence (x/2): 1 x/2
LMAN1
  Recurrence (x/2): 1 x/2
MFI2
  Recurrence (x/2): 1 x/2
TMEM30A
  Recurrence (x/2): 1 x/2
CTNNA2
  Recurrence (x/2): 1 x/2
NT5C
  Recurrence (x/2): 1 x/2
GAK
  Recurrence (x/2): 1 x/2
RPS6KA1
  Recurrence (x/2): 1 x/2
APMAP
  Recurrence (x/2): 1 x/2
YIPF5
  Recurrence (x/2): 1 x/2
NQO2; [1]
  Recurrence (x/2): 2 x/2
NQO2; [2]
  Recurrence (x/2): 1 x/2
RCL; [1]
  Recurrence (x/2): 1 x/2
RCL; [2]
  Recurrence (x/2): 1 x/2
CAMKV
  Recurrence (x/2): 1 x/2
DYNC2H1
  Recurrence (x/2): 1 x/2
PPM1L
  Recurrence (x/2): 1 x/2
